Consider 21 compounds from patent US9682953B2, “Amide compounds, compositions and applications thereof” (Advinus Therapeutics Limited, priority 2011, dated 2017).

pIC50: −log10 of the molar value. Counter-ions that a name gives are not always drawn.

Chain of human Fatty Acid Amide Hydrolase (FAAH) (O00519 30-579): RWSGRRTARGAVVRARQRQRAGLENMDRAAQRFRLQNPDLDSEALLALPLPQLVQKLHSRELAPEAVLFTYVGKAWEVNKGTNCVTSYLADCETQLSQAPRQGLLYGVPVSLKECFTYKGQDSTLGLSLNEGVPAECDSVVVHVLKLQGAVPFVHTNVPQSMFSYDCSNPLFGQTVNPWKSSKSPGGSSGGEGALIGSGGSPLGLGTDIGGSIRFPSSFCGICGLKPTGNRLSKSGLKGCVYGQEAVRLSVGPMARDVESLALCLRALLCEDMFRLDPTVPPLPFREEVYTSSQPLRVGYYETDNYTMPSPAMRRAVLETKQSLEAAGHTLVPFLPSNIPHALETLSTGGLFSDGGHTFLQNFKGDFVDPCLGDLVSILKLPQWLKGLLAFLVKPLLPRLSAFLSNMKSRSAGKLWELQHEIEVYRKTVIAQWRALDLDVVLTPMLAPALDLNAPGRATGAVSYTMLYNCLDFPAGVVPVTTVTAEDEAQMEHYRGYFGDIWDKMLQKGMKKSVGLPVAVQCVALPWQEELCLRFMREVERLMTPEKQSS

For the first test, the target named is rat Fatty Acid Amide Hydrolase (FAAH) (Rattus norvegicus (Rat), UniProt P97612). The test can be described thus: FAAH in vitro fluorescence assay (AAMCA hydrolysis), rat enzyme. The note with it: rat FAAH; read-out: rFAAH IC50. It is filed as biochemical. On the procedure: Material and Reagents: All reagents were purchased from Sigma-Aldrich unless specified. […] Chaperone protein groEL-groES in pGRO7 plasmid (Takara Bio Inc, Japan) was co-expressed with Fatty Acid Amide Hydrolase (FAAH) to improve solubility of the protein expressed in E coli. […] Briefly, the bacterial cultures in Luria Broth (2 L) were induced with arabinose (2 mM) and Isopropyl (β-D-1-thiogalactopyranoside, IPTG (1 mM), for 20 h at room temperature. The cultures were centrifuged at 1200×g for 10 min and the cell pellet was resuspended in 100 mL buffer containing of 20 mM NaPi (pH 7.4), 100 mM NaCl, Benzonase (500u), Aprotinin (1 μg/mL) and Leupeptin (1 μg/mL). Cells were lyzed by sonication (Amp 20%, Pulse 15 s×15, on ice) and the cell debris removed by centrifugation at 5000×g for 20 min. The supernatant was enriched via ultracentrifugation at 100,000×g for 1 h and the cell pellet was resuspended in 16 mL buffer containing 20 mM NaPi (pH 7.8), 500 mM NaCl, 1% Triton X-100. The resuspended cell extract was subjected to ultra-centrifugation at 100,000×g for 1 h and the enriched supernatant was used in the in vitro assay. All protein extraction steps were carried out on ice or at 4° C.
Chain of rat Fatty Acid Amide Hydrolase (FAAH) (P97612 30-579): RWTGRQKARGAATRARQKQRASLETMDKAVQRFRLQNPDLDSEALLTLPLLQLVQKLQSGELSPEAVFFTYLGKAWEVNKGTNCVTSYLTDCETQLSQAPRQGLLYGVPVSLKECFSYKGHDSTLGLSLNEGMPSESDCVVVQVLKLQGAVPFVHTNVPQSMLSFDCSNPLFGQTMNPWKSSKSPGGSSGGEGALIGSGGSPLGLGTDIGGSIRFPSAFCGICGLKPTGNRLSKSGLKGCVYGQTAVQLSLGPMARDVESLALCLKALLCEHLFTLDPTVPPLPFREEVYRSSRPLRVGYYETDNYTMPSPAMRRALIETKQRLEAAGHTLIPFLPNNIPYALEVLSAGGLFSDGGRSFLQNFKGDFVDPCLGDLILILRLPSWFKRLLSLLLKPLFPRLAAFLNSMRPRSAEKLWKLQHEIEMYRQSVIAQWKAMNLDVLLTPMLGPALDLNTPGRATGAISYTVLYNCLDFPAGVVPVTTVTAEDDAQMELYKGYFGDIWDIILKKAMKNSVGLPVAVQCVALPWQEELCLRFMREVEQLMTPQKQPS
The assay was carried out in 200 μL volume in a 96-well black polystyrene plate (Greiner Bio-one, Germany). Each reaction consisted of human Fatty Acid Amide Hydrolase (FAAH) protein and 10 μM AAMCA in assay buffer containing 50 mM HEPES, 1 mM EDTA and 0.1% BSA, pH 7.4. The reaction was incubated with 2 μL of varying concentrations of inhibitor in DMSO (final concentration of DMSO 1%) with shaking for 1 min and monitored for increase in fluorescence in kinetic mode for 50 min. […] Rate of reaction as a function of the concentration of the inhibitor was used to determine the IC50 of the inhibitors. Data was analyzed using GraphPad Prism 5 (GraphPad Software Inc., San Diego, Calif.). The activity of the compounds for rat Fatty Acid Amide Hydrolase (FAAH) was evaluated as described above with rat Fatty Acid Amide Hydrolase (FAAH) protein and 10 μM AAMCA substrate.
The pIC50 is the negative decadic logarithm of the IC50, by convention in mol/L. Turning to `O=C(NC1CCC(=Cc2cccc(Oc3ccc(C(F)(F)F)cn3)c2)CC1)c1cnc2[nH]ccc2c1` (single isomer, unassigned; (+)) [Example 20.A-13, (+)-N-[4-[[3-[[5-(trifluoromethyl)-2-pyridyl]oxy]phenyl]methylene]cyclohexyl]-1H-pyrrolo[2,3-b]pyridine-5-carboxamide], the pIC50 was 6.39.

The same test, now with this note: read-out: rFAAH % inhibition at 100 nM; rat FAAH; 100 nM (tier I).
What is called inhibition is the relative decrease from the control value, in per cent. Regarding `O=C(NC1CCC(=Cc2cccc(Oc3ccc(C(F)(F)F)cn3)c2)CC1)c1nc2cccnc2s1` [Example 2.D-3, N-[4-[[3-[[5-(Trifluoromethyl)-2-pyridyl]oxy]phenyl]methylene]cyclohexyl]thiazolo[5,4-b]pyridine-2-carboxamide], the inhibition at 0.1 µM amounted to 38%.

On to `O=C(NC1CCC(=Cc2cccc(Oc3ccc(C(F)(F)F)cn3)c2)CC1)c1ccc(-n2ccc(C(=O)O)n2)nc1` (stereo not shown) [Example 8.A-5, 1-[5-[[4-[[3-[[5-(Trifluoromethyl)-2-pyridyl]oxy]phenyl]methylene]cyclohexyl]carbamoyl]-2-pyridyl]pyrazole-3-carboxylic acid], for which the inhibition at 0.1 µM came out at 55%.

Still in this test, the particulars now being: read-out: rFAAH % inhibition at 10 uM; rat FAAH; 10 uM.
For `O=C(NC1CCC(=Cc2cccc(Oc3ccc(C(F)(F)F)cn3)c2)CC1)c1cccnc1` (single isomer, unassigned; (+)) [Example 20.A-1, (+)-N-[4-[[3-[[5-(Trifluoromethyl)-2-pyridyl]oxy]phenyl]methylene]cyclohexyl]pyridine-3-carboxamide], the inhibition at 10 µM was found to be 60%.

For the compound `Nc1ccc(C(=O)NC2CCC(=Cc3cccc(Oc4ccc(C(F)(F)F)cn4)c3)CC2)cn1` (single isomer, unassigned; (+)) [Example 20.A-3, (+)-6-Amino-N-[4-[[3-[[5-(trifluoromethyl)-2-pyridyl]oxy]phenyl]methylene]cyclohexyl]pyridine-3-carboxamide], the inhibition at 10 µM turned out to be 70%.

On to `O=C(NC1CCC(=Cc2cccc(Oc3ccc(C(F)(F)F)cn3)c2)CC1)c1c[nH]nc1C(F)(F)F` (single isomer, unassigned; (+)) [Example 20.A-7, (+)-3-(Trifluoromethyl)-N-[4-[[3-[[5-(trifluoromethyl)-2-pyridyl]oxy]phenyl]methylene]cyclohexyl]-1H-pyrazole-4-carboxamide], for which the inhibition at 10 µM stood at 85%.

Take `O=C(NC1CCC(=Cc2cccc(Oc3ccc(C(F)(F)F)cn3)c2)CC1)c1cn[nH]c1` (single isomer, unassigned; (+)) [Example 20.A-11, (+)-N-[4-[[3-[[5-(trifluoromethyl)-2-pyridyl]oxy]phenyl]methylene]cyclohexyl]-1H-pyrazole-4-carboxamide]: the inhibition at 10 µM is 86%.

Another test has as its target human Fatty Acid Amide Hydrolase (FAAH) (Homo sapiens (Human), UniProt O00519). The experiment in a line: biochemical. The note with it: hFAAH IC50.
Take `O=C(NC1CCC(=Cc2cccc(Oc3ccc(C(F)(F)F)cn3)c2)CC1)c1cccnc1` (single isomer, unassigned; (-)) [Example 20.A-2, (−)-N-[4-[[3-[[5-(Trifluoromethyl)-2-pyridyl]oxy]phenyl]methylene]cyclohexyl]pyridine-3-carboxamide]: the pIC50 is 9.15.

As to `O=C(Nc1cccnc1)C1CCC(=Cc2cccc(Oc3ccc(C(F)(F)F)cn3)c2)CC1` (stereo not shown) [Example 1.2, N-(3-Pyridyl)-4-[[3-[[5-(trifluoromethyl)-2-pyridyl]oxy]phenyl]-methylene]cyclohexanecarboxamide hydrochloride], the pIC50 is 7.77.

In the case of `O=C(NC1CCC(=Cc2cccc(Oc3ccc(C(F)(F)F)cn3)c2)CC1)c1cccnc1` (stereo not shown) [Example 2.1, N-[4-[[3-[[5-(Trifluoromethyl)-2-pyridyl]oxy]phenyl]methylene]cyclohexyl]pyridine-3-carboxamide], the pIC50 was 8.70.

The same test, now with this note: human FAAH; read-out: hFAAH IC50.
As to `Cc1cc(C(=O)NC2CCC(=Cc3cccc(Oc4ccc(C(F)(F)F)cn4)c3)CC2)cnc1N` (single isomer, unassigned; (+)) [Example 20.A-5, (+)-6-Amino-5-methyl-N-[4-[[3-[[5-(trifluoromethyl)-2-pyridyl]oxy]phenyl]methylene]cyclohexyl]pyridine-3-carboxamide], the pIC50 is 6.61.

For `O=C(NC1CCC(=Cc2cccc(Oc3ccc(C(F)(F)F)cn3)c2)CC1)c1cn[nH]c1` (single isomer, unassigned; (+)) [Example 20.A-11, (+)-N-[4-[[3-[[5-(trifluoromethyl)-2-pyridyl]oxy]phenyl]methylene]cyclohexyl]-1H-pyrazole-4-carboxamide], the pIC50 is 7.11.

In the case of `Cc1nc(Oc2cccc(C=C3CCC(NC(=O)c4cnc(N)nc4)CC3)c2)ccc1Cl` (single isomer, unassigned; (+)) [Example 20.A-21, (+)-2-Amino-N-[4-[[3-[(5-chloro-6-methyl-2-pyridyl)oxy]phenyl]methylene]cyclohexyl]pyrimidine-5-carboxamide], the pIC50 was 8.05.

Consider `Cc1nc(Oc2cccc(C=C3CCC(NC(=O)c4cnc(N)nc4)CC3)c2)ccc1Cl` (single isomer, unassigned; (-)) [Example 20.A-22, (−)-2-Amino-N-[4-[[3-[(5-chloro-6-methyl-2-pyridyl)oxy]phenyl]methylene]cyclohexyl]pyrimidine-5-carboxamide], for which the pIC50 is 8.96.

Take `O=C(Nc1cccnn1)C1CCC(=Cc2cccc(Oc3ccc(C(F)(F)F)cn3)c2)CC1` (stereo not shown) [Example 1.A-1, N-Pyridazin-3-yl-4-[[3-[[5-(trifluoromethyl)-2-pyridyl]oxy]phenyl]methylene]cyclohexanecarboxamide]: the pIC50 is 7.77.

On to `O=C(NC1CCC(=Cc2cccc(Oc3ccc(C(F)(F)F)cn3)c2)CC1)c1ccc(O)nc1` (stereo not shown) [Example 2.C-3, 6-Hydroxy-N-[4-[[3-[[5-(trifluoromethyl)-2-pyridyl]oxy]phenyl]methylene]cyclohexyl]pyridine-3-carboxamide], for which the pIC50 is 7.72.

As for `Nc1ncccc1C(=O)NC1CCC(=Cc2cccc(Oc3ccc(C(F)(F)F)cn3)c2)CC1` (stereo not shown) [Example 2.C-5, 2-Amino-N-[4-[[3-[[5-(trifluoromethyl)-2-pyridyl]oxy]phenyl]methylene]cyclohexyl]pyridine-3-carboxamide], the pIC50 was 7.43.

The test is the same for the next values; noted with them: read-out: hFAAH % inhibition at 100 nM; human FAAH; 100 nM (tier I).
Take `Cc1[nH]nc(C(F)(F)F)c1C(=O)NC1CCC(=Cc2cccc(Oc3ccc(C(F)(F)F)cn3)c2)CC1` (stereo not shown) [Example 2.A-36, 5-Methyl-3-(trifluoromethyl)-N-[4-[[3-[[5-(trifluoromethyl)-2-pyridyl]oxy]phenyl]methylene]cyclohexyl]-1H-pyrazole-4-carboxamide]: the inhibition at 0.1 µM turned out to be 50%.

For the compound `O=C(O)Cn1cc(C(=O)NC2CCC(=Cc3cccc(Oc4ccc(C(F)(F)F)cn4)c3)CC2)cn1` (stereo not shown) [Example 8.A-2, 2-[4-[[4-[[3-[[5-(Trifluoromethyl)-2-pyridyl]oxy]phenyl]methylene]cyclohexyl]carbamoyl]pyrazol-1-yl]acetic acid], the inhibition at 0.1 µM is 40%.

Still in this test, the particulars now being: read-out: hFAAH IC50.
Consider `Nc1ccc(C(=O)NC2CCC(=Cc3cccc(Oc4ccc(C(F)(F)F)cn4)c3)CC2)cn1` (single isomer, unassigned; (+)) [Example 20.A-3, (+)-6-Amino-N-[4-[[3-[[5-(trifluoromethyl)-2-pyridyl]oxy]phenyl]methylene]cyclohexyl]pyridine-3-carboxamide], for which the pIC50 is 6.44.

With `O=C(NC1CCC(=Cc2cccc(Oc3ccc(C(F)(F)F)cn3)c2)CC1)c1c[nH]nc1C(F)(F)F` (single isomer, unassigned; (+)) [Example 20.A-7, (+)-3-(Trifluoromethyl)-N-[4-[[3-[[5-(trifluoromethyl)-2-pyridyl]oxy]phenyl]methylene]cyclohexyl]-1H-pyrazole-4-carboxamide], the pIC50 was 7.17.

In the case of `Nc1ncc(C(=O)NC2CCC(=Cc3cccc(Oc4ccc(C(F)(F)F)cn4)c3)CC2)cn1` (single isomer, unassigned; (+)) [Example 20.A-9], the pIC50 was 7.40.

Turning to `O=C(NC1CCC(=Cc2cccc(Oc3ccc(C(F)(F)F)cn3)c2)CC1)c1cnc2[nH]ccc2c1` (single isomer, unassigned; (+)) [Example 20.A-13, (+)-N-[4-[[3-[[5-(trifluoromethyl)-2-pyridyl]oxy]phenyl]methylene]cyclohexyl]-1H-pyrrolo[2,3-b]pyridine-5-carboxamide], the pIC50 is 7.26.

Turning to `O=C(NC1CCC(=Cc2cccc(Oc3ccc(C(F)(F)F)cn3)c2)CC1)c1cncnc1` (single isomer, unassigned; (+)) [Example 20.A-19, (+)-N-[4-[[3-[[5-(trifluoromethyl)-2-pyridyl]oxy]phenyl]methylene]cyclohexyl]pyrimidine-5-carboxamide], the negative logarithm of the IC50 (pIC50) was 7.84.

Take `O=C(NC1CCC(=Cc2cccc(Oc3ccc(C(F)(F)F)cn3)c2)CC1)c1cncnc1` (single isomer, unassigned; (-)) [Example 20.A-20, (−)-N-[4-[[3-[[5-(Trifluoromethyl)-2-pyridyl]oxy]phenyl]methylene]cyclohexyl]pyrimidine-5-carboxamide]: the pIC50 is 9.10.
